This test concerns the target T1, human GPR40 (Homo sapiens, UniProt O14842).
T1 construct: expressed in transfected cells; host or cells: CHO-K1
Put plainly: Induction of Ca2+ (calcium flux assay) using human GPR40 expression cell line. The test is classed as cell-based. The note with it: read-out: EC0.5. The essentials:
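CHO-K1 cells stably transfected with human GPR40, plated 24 h, loaded 1 h at 37° C with Calcium 5 dye in HBSS/HEPES pH 7.4. Intracellular calcium change after compound addition read on FlexStation; concentration–response of relative activity used to derive EC0.5.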
T1 sequence (O14842 whole entry): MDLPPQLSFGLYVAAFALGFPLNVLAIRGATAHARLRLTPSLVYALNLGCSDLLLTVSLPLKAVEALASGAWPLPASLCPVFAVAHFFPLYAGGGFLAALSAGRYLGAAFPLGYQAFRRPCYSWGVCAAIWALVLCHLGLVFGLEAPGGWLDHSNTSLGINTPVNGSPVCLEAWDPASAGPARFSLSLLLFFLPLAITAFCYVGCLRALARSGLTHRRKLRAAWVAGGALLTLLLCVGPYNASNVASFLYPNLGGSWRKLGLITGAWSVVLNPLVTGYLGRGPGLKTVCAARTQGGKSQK
For `CC#C[C@@H](CC(=O)O)c1ccc(OCc2cccc3c2c(F)nn3CCCC)cc1` [Example 198, (S)-3-[4-(1-butyl-3-fluoro-1H-indazol-4-ylmethoxy)-phenyl]-hex-4-ynoic acid], the EC50 is 16 nM.
For the molecule `CC#C[C@@H](CC(=O)O)c1ccc(OCc2cccc3c2cnn3CC2CC2)cc1` [Example 199, (S)-3-[4-(1-cyclopropylmethyl-1H-indazol-4-ylmethoxy)-phenyl]-hex-4-ynoic acid], the EC50 turned out to be 17 nM.
In the case of `CC#C[C@@H](CC(=O)O)c1ccc(OCc2cccc3c2c(F)nn3CC2CC2)cc1` [Example 200, (S)-3-[4-(1-cyclopropylmethyl-3-fluoro-1H-indazol-4-ylmethoxy)-phenyl]-hex-4-ynoic acid], the EC50 came to 9 nM.
The result for `CC#C[C@@H](CC(=O)O)c1ccc(OCc2cccc3c(Cl)nn(C)c23)cc1` [Example 201, (S)-3-[4-(3-chloro-1-methyl-1H-indazol-7-ylmethoxy)-methyl]-hex-4-ynoic acid] reads 10 nM; that for `CC#C[C@@H](CC(=O)O)c1ccc(OCc2ccc3c(Cn4cccn4)nn(C(C)C)c3c2)cc1` [Example 202, (S)-3-[4-(1-isopropyl-3-pyrazol-1-ylmethyl-1H-indazol-6-ylmethoxy)-phenyl]-hex-4-ynoic acid], 8 nM.
For `CC#C[C@@H](CC(=O)O)c1ccc(OCc2cccc3c(F)nn(C)c23)cc1` [Example 203, (S)-3-[4-(3-fluoro-1-methyl-1H-indazol-7-ylmethoxy)-phenyl]-hex-4-ynoic acid], the EC50 is 1 to 50 nM.
Next, `CC#C[C@@H](CC(=O)O)c1ccc(OCc2ccnc3c2ccn3CC(C)C)cc1` [Example 204, (S)-3-[4-(1-isobutyl-1H-pyrrolo[2,3-b]pyridin-4-ylmethoxy)-phenyl]-hex-4-ynoic acid]: 9 nM; `CC#C[C@@H](CC(=O)O)c1ccc(OCc2cccc3c2c(C)nn3CCCC)cc1` [Example 205, (S)-3-[4-(1-butyl-3-methyl-1H-indazol-4-ylmethoxy)-phenyl]-hex-4-ynoic acid]: 16 nM; `CC#C[C@@H](CC(=O)O)c1ccc(OCc2cccc3c(CCCC)nn(C)c23)cc1` [Example 206, (S)-3-[4-(3-butyl-1-methyl-1H-indazol-7-ylmethoxy)-phenyl]-hex-4-ynoic acid]: 1 to 50 nM.
The result for `CC#C[C@@H](CC(=O)O)c1ccc(OCc2cccc3c(CC(C)C)nn(C)c23)cc1` [Example 207, (S)-3-[4-(3-isobutyl-1-methyl-1H-indazol-7-ylmethoxy)-phenyl]-hex-4-ynoic acid] reads 1 to 50 nM; that for `CC#C[C@@H](CC(=O)O)c1ccc(OCc2ccc(C)c3c2cnn3CC(C)C)cc1` [Example 208, (S)-3-[4-(1-isobutyl-7-methyl-1H-indazol-4-ylmethoxy)-phenyl]-hex-4-ynoic acid], 5 nM.
As for `CC#C[C@@H](CC(=O)O)c1ccc(OCc2cccc3c(C(C)C)nn(C)c23)cc1` [Example 209, (S)-3-[4-(3-isopropyl-1-methyl-1H-indazol-7-ylmethoxy)-phenyl]-hex-4-ynoic acid], the EC50 lay in the range of 1 to 50 nM.
On to `CC#C[C@@H](CC(=O)O)c1ccc(OCc2cccc3c(CCC)nn(C)c23)cc1` [Example 210, (S)-3-[4-(1-methyl-3-propyl-1H-indazol-7-ylmethoxy)-phenyl]-hex-4-ynoic acid], for which the EC50 came to 8 nM.
Next, `CC#C[C@@H](CC(=O)O)c1ccc(OCc2ccc3cnn(CC(C)C)c3c2C)cc1` [Example 211, (S)-3-[4-(1-isobutyl-7-methyl-1H-indazol-6-ylmethoxy)-phenyl]-hex-4-ynoic acid]: 4 nM.
The result for `CC#C[C@@H](CC(=O)O)c1ccc(OCc2ccc3c(C)nn(CC(C)C)c3c2C)cc1` [Example 212, (S)-3-[4-(1-isobutyl-3,7-dimethyl-1H-indazol-6-ylmethoxy)-phenyl]-hex-4-ynoic acid] reads 2 nM.
The result for `CC#C[C@@H](CC(=O)O)c1ccc(OCc2ccc(C)c3c2c(F)nn3CC(C)C)cc1` [Example 213, (S)-3-[4-(3-fluoro-1-isobutyl-7-methyl-1H-indazol-4-ylmethoxy)-phenyl]-hex-4-ynoic acid] reads 1 to 50 nM; that for `CC#C[C@@H](CC(=O)O)c1ccc(OCc2ccc3c(F)nn(CC)c3c2C)cc1` [Example 214, (S)-3-[4-(1-ethyl-3-fluoro-7-methyl-1H-indazol-6-ylmethoxy)-phenyl]-hex-4-ynoic acid], 2 nM; that for `CC#C[C@@H](CC(=O)O)c1ccc(OCc2ccc3c(CN4CCOCC4)nn(CC(C)C)c3c2C)cc1` [Example 215, (S)-3-[4-(1-isobutyl-7-methyl-3-morpholin-4-ylmethyl-1H-indazol-6-ylmethoxy)-phenyl]-hex-4-ynoic acid], 10 nM.
On to `CC#C[C@@H](CC(=O)O)c1ccc(OCc2ccc3c(CN4CCOCC4)nn(CC(C)C)c3c2Cl)cc1` [Example 216, (S)-3-[4-(7-chloro-1-isobutyl-3-morpholin-4-ylmethyl-1H-indazol-6-ylmethoxy)-phenyl]-hex-4-ynoic acid], for which the EC50 is 6 nM.
On to `CC#C[C@@H](CC(=O)O)c1ccc(OCc2ccc3c(CN4CCCC4)nn(CC(C)C)c3c2C)cc1` [Example 217, (S)-3-[4-(1-isobutyl-7-methyl-3-pyrrolidin-1-ylmethyl-1H-indazol-6-ylmethoxy)-phenyl]-hex-4-ynoic acid], for which the EC50 amounted to 20 nM.
For `CC#C[C@@H](CC(=O)O)c1ccc(OCc2ccc3c(CN4CCCCC4)nn(CC(C)C)c3c2C)cc1` [Example 218, (S)-3-[4-(1-isobutyl-7-methyl-3-piperidin-1-ylmethyl-1H-indazol-6-ylmethoxy)-phenyl]-hex-4-ynoic acid], the EC50 was found to be 14 nM.
Next, `CC#C[C@@H](CC(=O)O)c1ccc(OCc2ccc3c(CN4CCOCC4)nn(CC(C)C)c3c2)cc1` [Example 219, (S)-3-[4-(1-isobutyl-3-morpholin-4-ylmethyl-1H-indazol-6-ylmethoxy)-phenyl]-hex-4-ynoic acid]: 23 nM.
Regarding `CC#C[C@@H](CC(=O)O)c1ccc(OCc2ccc3cnn(C(C)C)c3c2C)cc1` [Example 220, (S)-3-[4-(1-isopropyl-7-methyl-1H-indazol-6-ylmethoxy)-phenyl]-hex-4-ynoic acid], the EC50 was determined as 3 nM.
Regarding `CC#C[C@@H](CC(=O)O)c1ccc(OCc2ccc3cnn(CCC)c3c2C)cc1` [Example 221, (S)-3-[4-(7-methyl-1-propyl-1H-indazol-6-ylmethoxy)-phenyl]-hex-4-ynoic acid], the EC50 is 5 nM.
`CC#C[C@@H](CC(=O)O)c1ccc(OCc2ccc3c(CF)nn(CC(C)C)c3c2C)cc1` [Example 222, (S)-3-[4-(3-fluoromethyl-1-isobutyl-7-methyl-1H-indazol-6-ylmethoxy)-phenyl]-hex-4-ynoic acid]: the EC50 stood at 5 nM.
The result for `CC#C[C@@H](CC(=O)O)c1ccc(OCc2ccc(C)c3c2cnn3C(C)C)cc1` [Example 223, (S)-3-[4-(1-isopropyl-7-methyl-1H-indazol-4-ylmethoxy)-phenyl]-hex-4-ynoic acid] reads 11 nM.
Turning to `CC#C[C@@H](CC(=O)O)c1ccc(OCc2ccnc3c2ccn3C(C)C)cc1` [Example 224, (S)-3-[4-(1-isopropyl-1H-pyrrolo[2,3-b]pyridin-4-ylmethoxy)-phenyl]-hex-4-ynoic acid], the EC50 came to 27 nM.
With `CC#C[C@@H](CC(=O)O)c1ccc(OCc2ccnc3c2c(F)cn3CC(C)C)cc1` [Example 225, (S)-3-[4-(3-fluoro-1-isobutyl-1H-pyrrolo[2,3-b]pyridin-4-ylmethoxy)-phenyl]-hex-4-ynoic acid], the EC50 worked out at 13 nM.
`CC#C[C@@H](CC(=O)O)c1ccc(OCc2ccc3cnn(Cc4cccnc4)c3c2C)cc1` [Example 226, (S)-3-[4-(7-methyl-1-pyridin-3-ylmethyl-1H-indazol-6-ylmethoxy)-phenyl]-hex-4-ynoic acid]: the EC50 amounted to 9 nM.
The result for `CC#C[C@@H](CC(=O)O)c1ccc(OCc2ccc3c(CN4CCCC(F)(F)C4)nn(CC(C)C)c3c2C)cc1` [Example 227, (S)-3-{4-[3-(3,3-difluoro-piperidin-1-ylmethyl)-1-isobutyl-7-methyl-1H-indazol-6-ylmethoxy]-phenyl}-hex-4-ynoic acid] reads 5 nM; that for `CC#C[C@@H](CC(=O)O)c1ccc(OCc2ccc3c(Cn4cccn4)nn(CC(C)C)c3c2C)cc1` [Example 228, (S)-3-[4-(1-isobutyl-7-methyl-3-pyrazol-1-ylmethyl-1H-indazol-6-ylmethoxy)-phenyl]-hex-4-ynoic acid], 1 to 50 nM.
Next, `CC#C[C@@H](CC(=O)O)c1ccc(OCc2ccc3c(CN4CC[C@H](F)C4)nn(CC(C)C)c3c2C)cc1` [Example 229, (S)-3-{4-[3-((S)-3-fluoro-pyrrolidin-1-ylmethyl)-1-isobutyl-7-methyl-1H-indazol-6-ylmethoxy]-phenyl}-hex-4-ynoic acid]: 35 nM; `CC#C[C@@H](CC(=O)O)c1ccc(OCc2ccc3c(CN4CCC(F)(F)C4)nn(CC(C)C)c3c2C)cc1` [Example 230, (S)-3-{4-[3-(3,3-difluoro-pyrrolidin-1-ylmethyl)-1-isobutyl-7-methyl-1H-indazol-6-ylmethoxy]-phenyl}-hex-4-ynoic acid]: 1 to 50 nM; `CC#C[C@@H](CC(=O)O)c1ccc(OCc2ccc3c(CN4CCC(F)(F)C4)cn(CC(C)C)c3n2)cc1` [Example 231, (S)-3-{4-[3-(3,3-difluoro-pyrrolidin-1-ylmethyl)-1-isobutyl-1H-pyrrolo[2,3-b]pyridin-6-ylmethoxy]-phenyl}-hex-4-ynoic acid]: 1 to 50 nM.
Next, `CC#C[C@@H](CC(=O)O)c1ccc(OCc2ccc3c(CN4CCCC(F)(F)C4)cn(CC(C)C)c3n2)cc1` [Example 232, (S)-3-{4-[3-(3,3-difluoro-piperidin-1-ylmethyl)-1-isobutyl-1H-pyrrolo[2,3-b]pyridin-6-ylmethoxy]-phenyl}-hex-4-ynoic acid]: 12 nM.
